{
  "source": "patent US20240091227A1",
  "about": "“Use Of 2-Phenyl-6-(1H-Imidazol-1-YL) Quinazoline For Treating Neurodegenerative Diseases, Preferably Alzheimer's Disease” (ROTTAPHARM BIOTECH S.R.L., priority 2019, published 2024)",
  "key": {"IL-1β": {"tested_on": "IL-1β", "test": "IL-1β gene expression in IL-1β-stimulated U373 MG astrocytoma cells (RT-PCR)", "type": "cell-based, human", "conditions": "IL-1β 2 ng/ml", "experimental": "(§1) A model of astrocytes, the human glioblastoma astrocytoma cell line U373 MG (Uppsala), was used for these experiments. Adherent cells were grown in DMEM medium supplemented with 10% FBS at 37° C. with CO2. 72 hours after plating, cells were treated for 1 h with 2-phenyl-6-(1H-imidazol-1-yl)quinazoline (CR4056) (10 μM) prepared according to EP2066653 and then stimulated with the pro-inflammatory cytokine IL-1β (2 ng/mL) for further 6 and 24 h.\n(§2) At the end of incubation period, total RNA was obtained and retro-transcribed using the High-Capacity cDNA Reverse Transcription Kit (Thermo Fisher Scientific). The levels of expression of COX-2, IL-1β, IL-6 and TNFα were evaluated by RT-PCR analysis, performed using the Applied Biosystems 7500 Fast Real-Time PCR System using specific TaqMan assays and, as an endogenous control, the 18S Pre-Developed TaqMan® Assay (Thermo Fisher Scientific). The data analysis, with normalisation on 18S amplified values, was according to Thermo Fisher Scientific specific instructions for gene expression relative quantification. All individual data were the result of at least three different measurements for each sample.\n(§3) Percentage of gene expression inhibition observed in U373 cells stimulated with IL-1β 2 ng/ml and exposed to 10 μM CR4056 for the indicated time."}, "IL-6": {"tested_on": "IL-6", "test": "IL-6 gene expression in IL-1β-stimulated U373 MG astrocytoma cells (RT-PCR)", "type": "cell-based, human", "conditions": "IL-1β 2 ng/ml", "experimental": "as §1, §2, §3"}, "[1]": {"tested_on": "Rats treated with scopolamine", "test": "Passive avoidance in scopolamine-induced memory impairment", "type": "in vivo, rat", "experimental": "FIG. 3 reports results of a passive avoidance test in the model of scopolamine-induced memory loss. Rats treated with scopolamine (Sco, 1 mg/kg) or physiological solution (Sal) received CR4056 10 mg/kg bid or its vehicle (MC). t student test. *p<0.05; **P<0.01 (n=6).\nScopolamine, a nonselective muscarinic receptor antagonist, produces a blocking of the activity of the muscarinic acetylcholine receptor, and the concomitant appearance of transient cognitive amnesia and electrophysiological changes, which resemble those observed in Alzheimer's disease. Therefore, scopolamine administration may be considered as a psychopharmacological model of Alzheimer's disease (Lenz R A, Psychopharmacology (Berl), 2012). Passive avoidance is a behavioural model of memory impairment.\nThe apparatus consisted of a two-compartment box: light and dark compartments separated by a door. The rat was placed in the center of the light compartment, with the door between two compartments closed. After 4 seconds, the door was opened and the latency time, i.e., the time taken by the rat to enter all four paws into the dark compartment was recorded.\nOnce the rat moved completely in the dark compartment, the door was closed and immediately a mild foot shock was delivered through the grid floor. Thus, during the initial phase the animal learned that the moving to the dark compartment had negative consequences. […]"}, "rats": {"tested_on": "rats", "test": "Rotarod and open field tests (motor coordination and locomotor activity)", "type": "in vivo, rat", "conditions": "suprapharmacological concentrations", "text": "These findings indicate that CR4056 could be a safe drug for treating neurodegenerative diseases, and, in particular, Alzheimer disease."}, "PKCε": {"tested_on": "PKCε", "test": "PKCε translocation to the plasma membrane in cultured dorsal root ganglia neurons", "type": "cell-based, rat", "conditions": "for IC50: rat DRG neurons", "experimental": "FIG. 1 reports the time-course (A) and washout (B) of CR4056 effect on PKCF translocation induced by bradykinin (BK 1 μM). In Panel A, open symbols represent the percentage of neurons positive for PKCF translocation following BK stimulation in absence of the drug. Filled symbols represent neurons pre-incubated with CR4056 ([…]) for different times before the stimulation for 30 seconds with BK+CR4056. The first filled symbol indicates the effect of CR4056 co-incubated for 30 seconds with BK, the second filled symbol indicates 10 seconds of pre-incubation of CR4056, and the last indicates 24 hours of pre-incubation of CR4056. […] In Panel B, BK-induced PKCF translocation was evaluated before (open symbol) and after pre-incubation of CR4056 ([…]) at different time intervals (from 10 minutes to 8 hours) (filled symbols). The first datapoint was obtained at the end of the 10 minute pre-incubation, when CR4056 was still present. The subsequent datapoints were obtained after extensive rinsing to ensure complete removal of the drug from extracellular solution (n=3).\nRat dorsal root ganglia (DRGs) were obtained from freshly isolated spines after carefully removing nerve trunks and connective tissue. Larger ganglia, chopped into 2-4 smaller pieces were then incubated for 1 hour at 37° C. in 0.125% collagenase (Worthington, Freehold, NJ) dissolved in Dulbecco's modified Eagle's medium (DMEM) containing 10% fetal bovine serum (FBS) plus 1% penicillin/streptomycin and 1% L-glutamine (Euroclone, Milan, Italy). After enzymatic digestion, ganglia were mechanically dissociated and neurons plated at a density such that neurons would cover about 30% of coverslip surface in a single layer, in petri dishes containing wells with a glass bottom coverslip (pre-coated with 10 μg/mL poly-L-lysine and 20 µg/ml laminin, Sigma-Aldrich, Milan, Italy). Cells were incubated for 2-3 days in DMEM as described above, plus 1.5 μg/ml cytosine 1-d-arabinofuranoside (ARA-C, Sigma-Aldrich) to slow down proliferation of non neuronal cells, and 100 ng/ml nerve growth factor (NGF, Sigma-Aldrich) to increase cell health and the and the expression of receptors which are linked to PKCF translocation upon stimulation. Activation of membrane receptors coupled to phospholipase C pathway leads to PKCF translocation from cytoplasm to the plasma membrane. In order to study PKCε behaviour a well established technique was employed (Vellani V, Neuroscience, 2006). […] CR4056 was pre-applied in the culture medium for 10 min or co-applied with the stimulus. After fixation, cells were permeabilized with 0.2% Triton X-100 (Sigma-Aldrich, Milan, Italy) and exposed overnight to a rabbit polyclonal antibody highly specific for PKCF. After extensive rinsing, PKCF was visualized with a secondary antibody (1:200 dilution Alexa Fluor 488 goat anti-rabbit, Thermo Fisher Scientific, Monza, Italy) applied for 2-4 hours at room temperature in the dark Cells showing PKCF translocation were detected with a confocal microscope (Leica SP2, Leica, Switzerland) by measuring fluorescence intensity along a line drawn through the cytoplasm and the membrane, thus avoiding the nucleus. Neurons in which fluorescence intensity at the plasma membrane throughout the cell was 1.5-fold or higher than the mean cytoplasmic intensity were considered positive."}, "[2]": {"conditions": "10 μM, 10 minute application, then washout"}},
  "note": "Where two headings read alike, the source gives them in different places.",
  "data": [
    {"compound": "c1ccc(-c2ncc3cc(-n4ccnc4)ccc3n2)cc1", "note": "[CR4056, 2-phenyl-6-(1H-imidazol-1-yl)quinazoline]", "values": [
      {"measurement": "Percentage of gene expression inhibition, IL-1β", "setting": "IL-1β; 10 μM CR4056, 6 h", "result": 20, "unit": "%"},
      {"measurement": "Percentage of gene expression inhibition, IL-1β", "setting": "IL-1β; 10 μM CR4056, 24 h", "result": 29, "unit": "%"},
      {"measurement": "Percentage of gene expression inhibition, IL-6", "setting": "IL-6; 10 μM CR4056, 6 h", "result": "not yet modulated"},
      {"measurement": "Percentage of gene expression inhibition, IL-6", "setting": "IL-6; 10 μM CR4056, 24 h", "result": 39, "unit": "%"},
      {"measurement": "Escape latency time, passive avoidance, sham animals", "setting": "[1]; rats not treated with scopolamine, CR4056 10 mg/kg bid vs vehicle (MC)", "result": "not different from its vehicle"},
      {"measurement": "Escape latency time, passive avoidance, scopolamine-treated animals", "setting": "[1]; rats, scopolamine 1 mg/kg sc, CR4056 10 mg/kg bid orally", "result": "counteracted the memory impairment"},
      {"measurement": "Impairment of motor coordination and locomotor activity (rotarod and open field tests)", "setting": "rats", "result": "nor impairment of motor coordination and locomotor activity"},
      {"measurement": "Time after washout during which the effect remained unchanged", "setting": "PKCε; [2]", "result": "up to 1 hour"},
      {"measurement": "Time after washout to complete reversal of the effect", "setting": "PKCε; [2]", "result": "3 to 4", "unit": "h"},
      {"measurement": "Influence of preincubation time on inhibition of PKCF translocation", "setting": "PKCε; 10 μM, preincubation prolonged up to 24 hours or reduced to 10 seconds", "result": "did not change the extent of the effect"},
      {"measurement": "Effect on BK-induced PKCF translocation, time-course (FIG. 1A)", "setting": "PKCε; CR4056 10 M, co-incubation 30 seconds to 24 hours pre-incubation, BK 1 μM, t-test p<0.05, n=6", "result": "highly significant at all times"},
      {"measurement": "Concentration at which the dose-response curves approached saturation", "setting": "PKCε; CR4056 applied for 10 minutes", "result": "about 10 μM"},
      {"measurement": "IC50", "setting": "PKCε; bradykinin stimulus, read-out: IC50, inhibition of PKCF translocation obtained with BK", "result": 200, "unit": "nM"},
      {"measurement": "IC50", "setting": "PKCε; prokineticin 2 stimulus, read-out: IC50, inhibition of PKCF translocation obtained with PK2", "result": 170, "unit": "nM"}
    ]}
  ]
}
